Target: T1, human DGAT2 (hDGAT2) (Homo sapiens, UniProt Q96PD7)
T1 construct: made in house; host or cells: Sf-9 insect cells (baculovirus), membrane fraction
T1 sequence (Q96PD7 1-388): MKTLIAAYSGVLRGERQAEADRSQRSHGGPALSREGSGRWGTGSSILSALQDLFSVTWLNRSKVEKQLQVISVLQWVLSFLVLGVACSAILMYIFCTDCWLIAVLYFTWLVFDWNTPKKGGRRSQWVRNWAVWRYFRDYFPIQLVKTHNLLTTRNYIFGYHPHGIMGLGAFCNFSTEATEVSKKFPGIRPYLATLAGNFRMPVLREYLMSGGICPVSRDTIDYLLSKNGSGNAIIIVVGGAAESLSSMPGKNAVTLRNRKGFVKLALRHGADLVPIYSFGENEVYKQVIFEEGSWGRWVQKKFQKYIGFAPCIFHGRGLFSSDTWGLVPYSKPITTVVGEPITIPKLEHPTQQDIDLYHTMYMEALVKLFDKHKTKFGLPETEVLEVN
Experiment: DGAT2 Enzymatic Activity Assay
Type: biochemical
Settings: membrane prep of Sf-9 cells expressing hDGAT2; 13C18-triolein product by LC/MS/MS; 25 μM diolein, 5 μM 13C oleoyl-CoA, rt
Protocol: Sf-9 insect cells were maintained in Grace's insect cell culture medium with 10% heated-inactivated fetal bovine serum, 1% Pluronic F-68 and 0.14 μg/ml Kanamycine sulfate at 27° C. in a shaker incubator. After infection with untagged baculovirus expressing human DGAT2 (hDGAT2) at multiplicity of infection (MOI) 3 for 48 hours, cells were harvested. Cell pellets were suspended in buffer containing 10 mM Tris-HCl pH 7.5, 1 mM EDTA, 250 mM sucrose and Complete Protease Inhibitor Cocktail (Sigma Aldrich), and sonicated on ice. Cell debris were removed by centrifugation at 2000×g for 15 minutes. Membrane fractions were isolated by ultracentrifugation (100,000×g), resuspended in the same buffer, and frozen (−80° C.) for later use. The protein concentration was determined with the Pierce™ BCA Protein Assay Kit (Thermo Fisher Scientific).
LC/MS/MS analyses were performed using Thermal Fisher's LX4-TSQ Vantage system. This system consists of an Agilent binary high-performance liquid chromatography (HPLC) pump and a TSQ Vantage triple quadrupole MS/MS instrument. For each sample, 2 μL samples from the top organic layer of in-plate liquid-liquid extraction were injected onto a Thermo Betabasic C4 column (2.1 mm×20 mm, 5 μm particle size). The samples were then eluted using the following conditions; mobile phase: Isopropanol:acetonitrile/10 mM ammonium formate=50/35/15 (v/v/v), flow rate: 0.8 mL/min, temperature: 25° C. Data was acquired in positive mode using a heated electrospray ionization (HESI) interface. The operational parameters for the TSQ Vantage MS/MS instrument were a spray voltage of 3000 V, capillary temperature of 280° C., vaporizer temperature 400° C., sheath gas 45 arbitrary unit. Aux gas 10 arbitrary units. […] The peak area was integrated by Xcalibur Quan software. The ratio between the ^13C18 triolein generated in the reaction and spiked in internal standard ^13C21-triolein was used to generate percentage inhibition and IC50 values. Compound percentage inhibition was calculated by the following formula: Inhibition %=1−[(compound response−low control)/(high control−low control)]×100%.
DGAT2 activity was determined by measuring the amount of enzymatic product ^13C18-triolein (^13C-1,2,3-Tri(cis-9-octadecenoyl)glycerol) using the membrane prep mentioned above. The assay was carried out in ABgene 384-well assay plates in a final volume of 25 μL at rt.

| SMILES | IC50 [nM] |
| --- | --- |
| CCOc1cccnc1Oc1ccc2nc(C(=O)N[C@@H]3CCCC[C@@H]3O)cn2c1 [Example 37] | 124 |
| CCOc1cccnc1Oc1ccc2nc(C(=O)NC3CC(C)(C)OC(C)(C)C3)cn2c1 [Example 38, 6-[(3-ethoxy-2-pyridyl)oxy]-N-(2,2,6,6-tetramethyltetrahydropyran-4-yl)imidazo[1,2-a]pyridine-2-carboxamide] | 56 |
| CC1(NC(=O)c2cn3c(F)c(Oc4ncccc4OCC(F)(F)F)ccc3n2)CCS(=O)(=O)CC1 [Example 39, 5-fluoro-N-(4-methyl-1,1-dioxo-thian-4-yl)-6-[[3-(2,2,2-trifluoroethoxy)-2-pyridyl]oxy]imidazo[1,2-a]pyridine-2-carboxamide] | 74 |
| Cc1cc2nc(C(=O)NC3(C)CCS(=O)(=O)CC3)cn2c(C)c1Oc1ncc(F)cc1OCC(C)(F)F [Example 40, 6-[[3-(2,2-difluoropropoxy)-5-fluoro-2-pyridyl]oxy]-5,7-dimethyl-N-(4-methyl-1,1-dioxo-thian-4-yl)imidazo[1,2-a]pyridine-2-carboxamide] | 52 |
| Cc1cc2nc(C(=O)NC3(C)CCS(=O)(=O)CC3)cn2cc1Oc1ncc(Cl)cc1OCC1(F)COC1 [Example 41, 6-[[5-chloro-3-[(3-fluorooxetan-3-yl)methoxy]-2-pyridyl]oxy]-7-methyl-N-(4-methyl-1,1-dioxo-thian-4-yl)imidazo[1,2-a]pyridine-2-carboxamide] | 74 |
| CC(C)c1cc2nc(C(=O)NC3(C)CCS(=O)(=O)CC3)cn2cc1Oc1ncc(Cl)cc1OCC(F)(F)F [Example 43, 6-[[5-chloro-3-(2,2,2-trifluoroethoxy)-2-pyridyl]oxy]-7-isopropyl-N-(4-methyl-1,1-dioxo-thian-4-yl)imidazo[1,2-a]pyridine-2-carboxamide] | 122 |
| Cc1c(Oc2nccnc2OCC(F)(F)F)cc(F)c2nc(C(=O)NC3(C)CCS(=O)(=O)CC3)cn12 [Example 44, 8-fluoro-5-methyl-N-(4-methyl-1,1-dioxo-thian-4-yl)-6-[3-(2,2,2-trifluoroethoxy)pyrazin-2-yl]oxy-imidazo[1,2-a]pyridine-2-carboxamide] | 68 |
| CCOc1cccnc1Oc1ccc2nc(C(=O)Nc3ccccc3)cn2c1 [Example 45, 6-[(3-ethoxy-2-pyridyl)oxy]-N-phenyl-imidazo[1,2-a]pyridine-2-carboxamide;2,2,2-trifluoroacetate] | 168 |
| CC(C)c1cc2nc(C(=O)NC3(C)CCS(=O)(=O)CC3)cn2cc1Oc1ncccc1OCC(F)(F)F [Example 48, 7-isopropyl-N-(4-methyl-1,1-dioxo-thian-4-yl)-6-[[3-(2,2,2-trifluoroethoxy)-2-pyridyl]oxy]imidazo[1,2-a]pyridine-2-carboxamide] | 59 |
| CC1(CNC(=O)c2cn3cc(Oc4ncc(Cl)cc4OCC(F)(F)F)ccc3n2)CCS(=O)(=O)CC1 [Example 50, 6-[[5-chloro-3-(2,2,2-trifluoroethoxy)-2-pyridyl]oxy]-N-[(4-methyl-1,1-dioxo-thian-4-yl)methyl]imidazo[1,2-a]pyridine-2-carboxamide] | 174 |
| O=C(NC1CCOc2c(F)cc(F)cc21)c1cn2cc(Oc3ncccc3OCC(F)(F)F)ccc2n1 (stereo not shown) [Example 51, N-(6,8-difluorochroman-4-yl)-6-[[3-(2,2,2-trifluoroethoxy)-2-pyridyl]oxy]imidazo[1,2-a]pyridine-2-carboxamide] | 123 |
| CCOc1cccnc1Oc1ccc2nc(C(=O)N[C@H]3CCOC3)cn2c1 [Example 52, 6-[(3-ethoxy-2-pyridyl)oxy]-N-[(3S)-tetrahydrofuran-3-yl]imidazo[1,2-a]pyridine-2-carboxamide] | 814 |
| CCOc1cccnc1Oc1ccc2nc(C(=O)NCc3ccccc3)cn2c1 [Example 53, N-benzyl-6-[(3-ethoxy-2-pyridyl)oxy]imidazo[1,2-a]pyridine-2-carboxamide] | 346 |
| CCOc1cccnc1Oc1ccc2nc(C(=O)Nc3cccnc3)cn2c1 [Example 54, 6-[(3-ethoxy-2-pyridyl)oxy]-N-(3-pyridyl)imidazo[1,2-a]pyridine-2-carboxamide] | 850 |

The remaining lines, values ahead:

| IC50 [nM] | SMILES |
| --- | --- |
| 6.2 | Cc1cc2nc(C(=O)NC3(C)CCS(=O)(=O)CC3)cn2cc1Oc1ncc(Cl)cc1OCC(F)(F)F [Example 30, 6-[[5-chloro-3-(2,2,2-trifluoroethoxy)-2-pyridyl]oxy]-7-methyl-N-(4-methyl-1,1-dioxo-thian-4-yl)imidazo[1,2-a]pyridine-2-carboxamide] |
| 9.1 | Cc1c(Oc2ncc(Cl)cc2OCC(C)(F)F)ccc2nc(C(=O)NC3(C)CCS(=O)(=O)CC3)cn12 [Example 31, 6-[[5-chloro-3-(2,2-difluoropropoxy)-2-pyridyl]oxy]-5-methyl-N-(4-methyl-1,1-dioxo-thian-4-yl)imidazo[1,2-a]pyridine-2-carboxamide] |
| 31 | CC1(NC(=O)c2cn3cc(Oc4ncc(F)cc4OCC(F)(F)F)ccc3n2)CS(=O)(=O)C1 [Example 32, 6-[[5-fluoro-3-(2,2,2-trifluoroethoxy)-2-pyridyl]oxy]-N-(3-methyl-1,1-dioxo-thietan-3-yl)imidazo[1,2-a]pyridine-2-carboxamide] |
| 5.3 | Cc1c(Oc2ncc(F)cc2OCC2(F)CC2)ccc2nc(C(=O)NC3(C)CCS(=O)(=O)CC3)cn12 [Example 33, 6-[[5-fluoro-3-[(1-fluorocyclopropyl)methoxy]-2-pyridyl]oxy]-5-methyl-N-(4-methyl-1,1-dioxo-thian-4-yl)imidazo[1,2-a]pyridine-2-carboxamide] |
| 2.8 | Cc1c(Oc2ncc(F)cc2OCC(F)(F)F)ccc2nc(C(=O)NC3(C)CCS(=O)(=O)CC3)cn12 [Example 34, 6-[[5-fluoro-3-(2,2,2-trifluoroethoxy)-2-pyridyl]oxy]-5-methyl-N-(4-methyl-1,1-dioxo-thian-4-yl)imidazo[1,2-a]pyridine-2-carboxamide] |
| 52 | CCOc1cccnc1Oc1ccc2nc(C(=O)N[C@@]3(C)CCS(=O)(=O)C3)cn2c1 [Example 35, 6-[(3-ethoxy-2-pyridyl)oxy]-N-[(3S)-3-methyl-1,1-dioxo-thiolan-3-yl]imidazo[1,2-a]pyridine-2-carboxamide] |
| 30 | Cc1c(Oc2ncccc2OCC(F)(F)F)ccc2nc(C(=O)NC3(C)CCS(=O)(=O)CC3)cn12 [Example 36, 5-methyl-N-(4-methyl-1,1-dioxo-thian-4-yl)-6-[[3-(2,2,2-trifluoroethoxy)-2-pyridyl]oxy]imidazo[1,2-a]pyridine-2-carboxamide] |
| 50 | CC1(CNC(=O)c2cn3cc(Oc4ncc(Cl)cc4OCC(F)(F)F)ccc3n2)CS(=O)(=O)C1 [Example 42, 6-[[5-chloro-3-(2,2,2-trifluoroethoxy)-2-pyridyl]oxy]-N-[(3-methyl-1,1-dioxo-thietan-3-yl)methyl]imidazo[1,2-a]pyridine-2-carboxamide] |
| 42 | Cc1c(Oc2nccnc2OCC(F)F)ccc2nc(C(=O)NC3(C)CCS(=O)(=O)CC3)cn12 [Example 46, 6-[3-(2,2-difluoroethoxy)pyrazin-2-yl]oxy-5-methyl-N-(4-methyl-1,1-dioxo-thian-4-yl)imidazo[1,2-a]pyridine-2-carboxamide] |
| 8.7 | CC(F)(F)COc1cc(F)cnc1Oc1cn2cc(C(=O)NC3(C)CCS(=O)(=O)CC3)nc2cc1F [Example 47, 6-((3-(2,2-difluoropropoxy)-5-fluoropyridin-2-yl)oxy)-7-fluoro-N-(4-methyl-1,1-dioxidotetrahydro-2H-thiopyran-4-yl)imidazo[1,2-a]pyridine-2-carboxamide] |
| 12 | CC(C)c1c(Oc2ncc(Cl)cc2OCC(F)(F)F)ccc2nc(C(=O)NC3(C)CCS(=O)(=O)CC3)cn12 [Example 49, 6-[[5-chloro-3-(2,2,2-trifluoroethoxy)-2-pyridyl]oxy]-5-isopropyl-N-(4-methyl-1,1-dioxo-thian-4-yl)imidazo[1,2-a]pyridine-2-carboxamide] |

Reference: patent publication US20260176267A1, “PREPARATION OF IMIDAZOPYRIDINE AND IMIDAZOPYRIDAZINE DERIVATIVES AS NOVEL DIACYLGLYCERIDE O-ACYLTRANSFERASE 2 INHIBITORS” (Merck Sharp & Dohme LLC, priority 2022, published 2026)
